Experimental data reported in US20230255881A1, “METHOD OF RAPIDLY ACHIEVING THERAPEUTIC CONCENTRATIONS OF TRIPTANS FOR TREATMENT OF MIGRAINES AND CLUSTER HEADACHES” (Emergex USA Corporation, priority 2017, published 2023).
Values after ≈ are worked out from the molar mass of the structure shown. Like-named read-outs stand apart in the source and are kept apart here.

What was measured:
[1] = cited from earlier work; for AUC0-last: Seaber1997
5HT1B/1D = details: relative to zolmitriptan; cited from earlier work
clinical = details: human, in vivo
Method: The final treatment administered was 3.8 mg on a 10 cm^2 patch using an applicator with 0.52 Joule of application energy in the intracutaneous microneedle system described herein. The products tested were:
(§1) The array was applied to the center of a 5 cm^2 tan adhesive backing to form the patch. The patch was attached to the interior of a white to off-white polycarbonate ring co-molded with a desiccant, and this patch assembly was packaged in a foil pouch.
as §1
The array was applied to the center of a 10 cm^2 tan adhesive backing to form the patch. The patch was attached to the interior of a white to off-white polycarbonate ring co-molded with a desiccant, and this patch assembly was packaged in a foil pouch.
This was a single-center, open-label, randomized five-way crossover study (Part 1) followed by a sequential study of two additional treatments (Parts 2 and 3). After obtaining informed consent and establishing eligibility, each subject received each of the seven study treatments once, followed by in-clinic monitoring and extensive blood sample collection for pharmacokinetic analysis. […] Plasma samples from the initial dosing days were sent to the analytical laboratory for analysis, and tolerability for each of the dose levels was summarized. […] During Part 3, subjects received a single 3.8 mg patch (applied with a 0.52 J applicator) and also completed identical procedures to the previous dosing days. After completion of the seven dosing days, subjects were assessed one final time and dismissed from the study.
Twenty subjects were enrolled in the study, 10 males and 10 females. The subjects mean age was 29 years±3.5 years with a mean BMI of 24.4±3.5.
PK parameters were summarized by treatment group using descriptive statistics (arithmetic means, standard deviations, coefficients of variation, sample size, minimum, maximum, and median).
Graphs of apparent dose linearity and proportionality of PK parameters (AUCt, AUCinf and Cmax) were compiled.

[2] = In vivo pig study: zolmitriptan distribution in skin by quantitative mass-spectrometry imaging; details: swine skin after 1-hour ADAM wear
From the text: Evidence of zolmitriptan diffusion within the skin was obtained by quantitative mass-specetrometry imaging. Analyses of the surface area of the stratum corneum, epidermis, and dermis indicate that the largest amount of zolmitriptan localized to the dermis.

[3] = Solubility of zolmitriptan in 0.1 M acids at 2-8° C.; type: physicochemical; details: de-ionized water
From the text: The suspension was then centrifuged.

## CNCCc1c[nH]c2ccc(C[C@H]3COC(=O)N3)cc12 [N-desmethyl zolmitriptan]
[1]; after zolmitriptan administration
  metabolite concentrations relative to zolmitriptan: about two-thirds
5HT1B/1D
  5HT1B/1D potency, times that of the parent: 2 to 6 times

## CN(C)CCc1c[nH]c2ccc(C[C@H]3COC(=O)N3)cc12 [Oral Zolmi]
clinical; po, 2.5 mg
  AUC0-last Dose: 8.6 ng·h/mL/mg

## CNS(=O)(=O)Cc1ccc2[nH]cc(CCN(C)C)c2c1 [SC Suma]
clinical; sc, 6 mg
  AUC0-last Dose: 16.8 ng·h/mL/mg

## CNS(=O)(=O)Cc1ccc2[nH]cc(CCN(C)C)c2c1 [Sumatriptan SC]
clinical; sc
  t1/2: 1.14 H

## CNS(=O)(=O)Cc1ccc2[nH]cc(CCN(C)C)c2c1 [Sumatriptan]
[1]; marketed dosage form
  Tmax: about 2 hours
[1]; oral administration
  bioavailability: about 15%

## CN(C)CCc1c[nH]c2ccc(C[C@H]3COC(=O)N3)cc12 [Zolmitriptan 10 mg oral, zolmitriptan]
[1]; females (F)
  AUC0-last: 108.6 ng·h/mL
[1]; males (M)
  AUC0-last: 84.4 ng·h/mL

## CN(C)CCc1c[nH]c2ccc(C[C@H]3COC(=O)N3)cc12 [Zolmitriptan oral tablet]
clinical; both, po, 2.5 mg
  AUCinf: 27.19 ng · H/mL
  Cmax: 3.77 ng/mL
  Tmax: 1.79 h
clinical; both, po, 2.5 mg, AUC2 hrs
  AUC(0-t): 4.72 ng·h/mL
clinical; both, po, 2.5 mg, AUCt
  AUC(0-t): 22.2 ng·h/mL

## CN(C)CCc1c[nH]c2ccc(C[C@H]3COC(=O)N3)cc12 [Zolmitriptan, zolmitriptan]
[2]; Dermis/hypodermis
  Percentage of Total Zolmitriptan: 95.5
[2]; Epidermis
  Percentage of Total Zolmitriptan: 2.7
[2]; Stratum corneum
  Percentage of Total Zolmitriptan: 1.8
[3]
  Solubility: 1300 µg/mL (≈ 4.52 mM)
